# Results from patent US20040033941A1, “Immunosuppression using piceatannol and a calcineurin inhibitor” (priority 2003, published 2004).
# “Also recorded” adds a separate entry of the source.
# What was measured:
# T and B cell activation = test: T and B cell activation; type: cell-based; conditions: both in vitro and in vivo
# [1] = tested on: hearts from ACI rats transplanted into Lewis rats; test: Heterotopic heart transplant, graft survival; type: in vivo, rat; conditions: at the specified dosages (30 mg/kg piceatannol, 2 mg/kg cyclosporin A)
# Description: (§1) In vivo studies were conducted using piceatannol obtained from Peninsula Lab. […] We examined the ability of piceatannol/calcineurin mixtures to prolong graft survival. Donor organs from ACI rats were transplanted into Lewis rats.
# Prior to transplantation, piceatannol (30 mg/kg) was administered intravenously for three days into one selection of Lewis rats via a catheter placed in the right jugular vein.
# At day 3, hearts from ACI rats were heterotopically transplanted into the abdomen of the Lewis rats. […] Following transplantation, fascia and muscle were closed with absorbable suture and skin was closed with nylon.
# After surgery animals were placed on a warm pad and observed until they awakened. The animals were then placed in cages in a warm environment with wood chip bedding, and provided rodent chow. To relieve pain, Buprenorphine was also given to the animal. Toxicity in animals was monitored by measuring the blood levels of creatinine and ALT, indicators of kidney and liver function, respectively. Drug administration then continued for an additional seven days after the transplant surgery (and was then discontinued).
# In the case of heart transplants, rejection was considered complete when no heart beat was palpable with respect to the transplanted organ. This was confirmed by laparotomy and direct inspection.
# [2] = tested on: kidneys from ACI rats transplanted into Lewis rats; type: in vivo
# Description: as §1
# In other experiments, kidneys from ACI rats were transplanted into Lewis rats. Drug administration continued for an additional seven days after transplant at the same levels. From day 8 through day 60 post-transplant administration continued, albeit with piceatannol reduced to 10 mg/kg/day. Thereafter, drug administration ceased.
# Animals were anesthetized. The lower abdomen of the donor was shaved and surgically prepared and a long midline incision was made in the abdominal wall. The left kidney and left ureter, aorta, and vena cava were dissected, and suprarenal and gonadal veins ligated and cut. After ligating the suprarenal aorta and vena cava, a hole made in distal aorta and left kidney was flushed in situ with 3 ml of heparinized cold Euro-Collins' solution. The left kidney and left ureter were removed with an aortic cuff and vena cava patched and kept on ice.
# After the lower abdomen of the recipient was shaved and surgically prepared, the recipient animal underwent a left nephrectomy via a long midline incision under inhalation anesthesia, and abdominal aoerta and vena cava were prepared for anastomosis. […]
# Syk kinase = conditions: J. Oliver et al., J. Biol. Chem. 1994; mast cell/allergy studies; cited from earlier work
# transplanted organ = test: In vivo use of piceatannol alone as an immunosuppressive
smiles,measurement,setting,value
"Oc1cc(O)cc(/C=C/c2ccc(O)c(O)c2)c1 [piceatannol, 3,4,3′,5′-tetrahydroxy-trans-stilbene]",T and B cell activation,T and B cell activation,inhibits
same,prolongation of heart graft survival (in words),[1],only minimal prolongation effect
same,prolonging kidney allograft survival (in words),"[2]; piceatannol 30 then 10 mg/kg/day IV, CsA 2 mg/kg/day IM, day -3 to +60, rejection = serum creatinine over 2 mg/dl or death",not effective
same,histological analysis of transplanted kidneys,"[2]; single-agent groups, data not shown",signs of acute rejection
same,inhibition of Syk kinase,Syk kinase,very effective inhibitor
same,tolerability / toxicity of piceatannol alone,transplanted organ; 75 mg/kg of body weight per day,not well tolerated; also recorded: some toxicity was noted
same,"transplanted organ survival, piceatannol alone",transplanted organ; in vivo use of piceatannol,prolongs transplanted organ survival
